Data as given in patent US20040029816A1, “Hepatoprotective activity of 10-O-P-hydroxybenzoyiaucubin” (priority 2002, published 2004).

Key:
[1] = tested on: CCl4 induced hepatic injury; test: Hepatoprotective activity (in vivo) against CCl4 induced hepatic injury in rats
Description: Treatment of experimental animals with the 033 and 033(1) against CCU induced liver damage reduced the elevated levels of serum GPT, GOT, ALP, bilirubin, TG and hepatic lipid peroxidation and increased the GSH level.

[2] = tested on: GalN induced hepatic injury; test: Hepatoprotective activity (in vivo) against galactosamine (GalN) induced hepatic injury in rats
Description: The hepatoprotective activity observed with 033 and 033(1) was 59.58 & 44.97, 56.62 & 44.05, 54.28 & 47.66, 57.71 & 66.66, 57.89 & 49.33 percent in serum GPT, GOT, Bilirubin, ALP, and TG respectively and 67.51 & 48.34, 66.56 & 55.13 percent in hepatic lipid peroxidation (LP) and GSH respectively. The same with silymarin was 57.38, 55.40, 60.00, 53.54,46.17, 69.59, 67.18 percent respectively (Table-2). [table]

[3] = liver homogenate, rats, fed p.o. at 48 h, 24 h, 2 h before and 6 h after CCl4 (1 ml/kg, p.o.), 033 400 mg/kg, 033 (1) and silymarin 50 mg/kg, mean of six animals
[4] = rats, fed p.o. at 48 h, 24 h, 2 h before and 6 h after CCl4 (1 ml/kg, p.o.), 033 400 mg/kg, 033 (1) and silymarin 50 mg/kg, mean of six animals
[5] = rats, fed p.o. at 48 h, 24 h, 2 h before and 6 h after CCl4 (1 ml/kg, p.o.), 033 400 mg/kg, 033 (1) and silymarin 50 mg/kg, mean of six animals, listed as 033(1)
[6] = liver, rats, fed p.o. at 48 h, 24 h, 2 h before and 6 h after GalN (300 mg/kg, s.c.), 033 400 mg/kg, 033 (1) and silymarin 50 mg/kg, mean of six animals
[7] = rats, fed p.o. at 48 h, 24 h, 2 h before and 6 h after GalN (300 mg/kg, s.c.), 033 400 mg/kg, 033 (1) and silymarin 50 mg/kg, mean of six animals

## O=C(OCC1=C[C@@H](O)[C@@H]2C=CO[C@@H](O[C@@H]3O[C@H](CO)[C@@H](O)[C@H](O)[C@H]3O)[C@H]12)c1ccc(O)cc1 [033 (1), 10-O-p-hydroxybenzoylaucubin]
[1]; experimentally induced hepatic damage with CCl4 in rats
  hepatoprotective activity (in words): marked hepatoprotective activity
[1]; [3]
  Hepatoprotective activity, hepatic Glutathione (GSH): 38.12%
  Hepatoprotective activity, hepatic Lipid peroxidation (LP): 41.48%
[1]; [4]
  Hepatoprotective activity, serum ALP (table head: Al.F): 60.2%
  Hepatoprotective activity, serum Bilirubin (table head: Bihrubin (mg %)): 71.79%
  Hepatoprotective activity, serum GOT (Units): 57.43%
  Hepatoprotective activity, serum GPT (table head: OPT (Units)): 59.52%
  Hepatoprotective activity, serum Triglycerides (TG): 38.53%
[1]; [5]
  Hepatoprotective activity, serum ALP (table head: Al.F): 60.17%
  Hepatoprotective activity, serum GOT (Units): 57.42%
[2]; experimentally induced hepatic damage with galactosamine (GalN) in rats
  hepatoprotective activity (in words): marked hepatoprotective activity
[2]; [6]
  Hepatoprotective activity, hepatic Glutathione (GSH): 55.13%
  Hepatoprotective activity, hepatic Lipid peroxidation (LP): 48.34%
[2]; [7]
  Hepatoprotective activity, serum ALP: 66.66%
  Hepatoprotective activity, serum Bilirubin (mg %): 47.66%
  Hepatoprotective activity, serum GOT (Units): 44.05%
  Hepatoprotective activity, serum GPT (Units): 44.97%
  Hepatoprotective activity, serum Triglycerides (mg %): 49.33%
